The values that follow are results of earlier work, collected in patent US9862672B2, “Antioxidant-based poly(anhydride-esters)” (RUTGERS, THE STATE UNIVERSITY OF NEW JERSEY, priority 2013, dated 2018).

Molecules are shown by their SMILES.

For the data set the following is noted: in vivo.

Regarding `COc1cc(/C=C/C(=O)O)ccc1O` [Ferulic acid], the Elimination half-life entry was “less than 2 hours”.
